Laboratory results published in the supplement of paper PMC10307832.

What was measured:
Assay in all cases: relative viability (nuclei count vs DMSO), 5 days (fraction); higher = more cells survive
RO-3306 + Foretinib = compound: C1=CC2=C(C=CC(=C2)C=C3C(=O)NC(=NCC4=CC=CS4)S3)N=C1 [RO-3306] + COc1cc2c(Oc3ccc(NC(=O)C4(C(=O)Nc5ccc(F)cc5)CC4)cc3F)ccnc2cc1OCCCN1CCOCC1 [Foretinib] (partner 0.25 µM)
Method in brief: (§1)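 Nuclei were stained with Hoechst during a one-step fixation (final 0.05% Triton X-100, 1% formaldehyde, 1 ug/ml Hoechst) carried out 5 days after dosing, then counted on 4× images. The cells, lung cancer lines in 1536-well plates, had been dosed by pin tool the day after seeding with one drug alone or a fixed anchor-drug dose plus five library-drug doses (not always all listed) in √10 steps. Relative viability is the nuclei count in treated wells divided by that in vehicle wells, and each value is the median of duplicate plates.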

RO-3306 + OSI-027 = compound: C1=CC2=C(C=CC(=C2)C=C3C(=O)NC(=NCC4=CC=CS4)S3)N=C1 [RO-3306] + COc1cccc2cc(-c3nc([C@H]4CC[C@H](C(=O)O)CC4)n4ncnc(N)c34)[nH]c12 [OSI-027] (partner 0.5 µM)
Method in brief: as §1

[1] = compound: O=S(=O)(c1ccccc1)N(CC(F)(F)F)c1ccc(C(O)(C(F)(F)F)C(F)(F)F)cc1 + COc1cc2c(Oc3ccc(NC(=O)C4(C(=O)Nc5ccc(F)cc5)CC4)cc3F)ccnc2cc1OCCCN1CCOCC1 [Foretinib] (partner 0.25 µM)
Method in brief: as §1

[2] = compound: O=S(=O)(c1ccccc1)N(CC(F)(F)F)c1ccc(C(O)(C(F)(F)F)C(F)(F)F)cc1 + C[C@]1(O)C[C@@H](c2nc(-c3ccc4ccc(-c5ccccc5)nc4c3)c3c(N)nccn32)C1 [Linsitinib] (partner 1 µM)
Method in brief: as §1

[3] = compound: O=S(=O)(c1ccccc1)N(CC(F)(F)F)c1ccc(C(O)(C(F)(F)F)C(F)(F)F)cc1 + Cc1nc(NC(=O)N2CCC[C@H]2C(N)=O)sc1-c1ccnc(C(C)(C)C(F)(F)F)c1 [Alpelisib] (partner 2 µM)
Method in brief: as §1

Cell Line	relative viability (RO-3306 + Foretinib; first compound 0.01 µM)	relative viability (RO-3306 + Foretinib; first compound 0.03162 µM)	relative viability (RO-3306 + Foretinib; first compound 0.1 µM)	relative viability (RO-3306 + Foretinib; first compound 0.3162 µM)	relative viability (RO-3306 + Foretinib; first compound 1 µM)	relative viability (RO-3306 + OSI-027; first compound 0.01 µM)	relative viability (RO-3306 + OSI-027; first compound 0.03162 µM)	relative viability (RO-3306 + OSI-027; first compound 0.1 µM)	relative viability (RO-3306 + OSI-027; first compound 0.3162 µM)	relative viability (RO-3306 + OSI-027; first compound 1 µM)	relative viability ([1]; first compound 0.8 µM)	relative viability ([1]; first compound 2.53 µM)	relative viability ([1]; first compound 8 µM)	relative viability ([2]; first compound 0.8 µM)	relative viability ([2]; first compound 2.53 µM)	relative viability ([2]; first compound 8 µM)	relative viability ([3]; first compound 0.8 µM)	relative viability ([3]; first compound 2.53 µM)	relative viability ([3]; first compound 8 µM)
NCI-H358	0.541	0.57	0.623	0.786	0.493	0.587	0.658	0.79	0.741	0.59	0.592	0.557	0.45	0.598	0.521	0.578	0.647	0.729	0.695
EKVX	0.805	0.748	0.841	0.741	0.744	0.757	0.646	0.661	0.955	0.684	0.751	0.479	0.82	0.897	0.946	0.931	0.892	0.803	0.955
NCI-H1755	0.939	0.973	0.921	0.927	0.936	0.777	0.736	0.652	0.702	0.635	0.891	0.79	0.951	1.01	0.98	0.995	0.981	0.91	0.83
NCI-H460	1	0.894	1.08	1.08	1.08	0.613	0.492	0.654	0.835	0.605	1.14	0.889	0.778	1.55	0.829	0.695	0.544	0.512	0.512
NCI-H2405	1.05	1.06	1.03	1.03	0.961	0.609	0.591	0.629	0.614	0.626	1.14	1.05	0.979	1.05	0.913	0.983	0.877	0.795	0.868
LU99A	0.869	0.798	0.844	0.835	0.733	0.296	0.284	0.297	0.317	0.274	0.785	0.773	0.725	0.47	0.524	0.558	0.606	0.498	0.472
NCI-H2087	0.985	1.01	1.13	1.24	0.982	0.534	0.462	0.529	0.539	0.538	1.15	0.909	0.971	0.921	0.95	0.961	1.16	1.11	0.972
SK-MES-1	1.06	0.425	0.996	0.782	0.976	0.657	0.558	0.693	0.794	0.612	0.723	0.728	0.767	1.15	1.17	0.972	0.827	0.789	0.848
HCC-827	1.07	1	1.05	1.03	1.06	0.855	0.59	0.808	0.8	0.8	1.04	1.02	0.922	1.03	0.954	0.938	1.05	1.05	0.842
NCI-H520	0.843	0.663	0.854	0.694	0.839	0.288	0.283	0.225	0.254	0.304	0.923	0.686	0.699	1.09	1.23	1.25	1	0.915	1.28
NCI-H1944	0.966	0.884	0.818	0.92	0.915	0.399	0.366	0.361	0.394	0.335	0.938	0.826	0.832	1.25	1.08	1.13	0.802	0.837	0.738
NCI-H1395	0.981	0.902	0.895	0.945	0.824	0.598	0.674	0.502	0.618	0.612	0.924	0.862	0.994	1.23	1.05	1.21	0.936	1.02	1.29
NCI-H2009	1.32	1.24	1.2	1.19	1.2	0.656	0.56	0.624	0.622	0.615	1.26	1.08	0.988	1.15	1.01	1.03	1.09	1.02	0.964
RERF-LC-KJ	0.844	0.683	0.795	0.906	0.958	0.632	0.53	0.556	0.598	0.556	0.816	0.746	0.751	0.901	0.779	0.801	0.857	0.701	0.858
NCI-H650	0.989	0.94	1.01	1.07	1.02	0.473	0.471	0.492	0.483	0.501	1.18	1.05	1.07	0.739	0.761	0.938	1.13	1.03	1
NCI-H3122	0.987	0.984	0.94	0.969	1.09	1.11	0.849	1.03	1.03	1.01	0.891	0.792	1.05	0.988	0.894	1.11	0.744	0.627	0.672
